The subject of test [1] is Human umbilical vein endothelial cells. As to the kind of experiment: Proliferation of FGF-induced endothelial cells, combination with E7820. The class given is cell-based. Conditions: inhibition rate (fa) 0.5, 20 ng/ml bFGF; for Combination index (CI): formula of Chou et al. The method, then:
On the next day, ½ serial dilutions of FGF receptor kinase inhibitors (PD166866, PD173074) or FGF antibody as FGF inhibitors, ½ serial dilutions of E7820, and dilutions containing two of the above substances were prepared respectively, and each dilution was added in a volume of 100 μl/well to each well containing the cultured human umbilical vein endothelial cells, and the cells were further cultured.
(§1) After 3 days, 5 ml cell counting kit solution (Wako Pure Chemical Industries, Ltd.) were diluted with PBS to give 40 ml dilution, and 50 μl of this dilution were added to each well, then incubated at 37° C. for 3 to 4 hours and measured for its absorbance at 415 nm by a plate reader (Corona Denki Co., Ltd.).

The subject of test [2] is Human umbilical vein endothelial cells (HUVEC). The experiment in a line: Tube formation of endothelial cell, FGF inhibitor wells, combination with E7820. It is filed as cell-based. Conditions: inhibition rate (fa) 0.5, 10 ng/ml EGF and 20 ng/ml bFGF.
Procedure: (§4) 400 μl of type I collagen gel (Nitta Gelatin) were added onto each well of a 24-well plate (FALCON) and gelled at 37° C. in a CO2 incubator for 40 min. A serum-free medium (human endothelial-SFM basal growth medium; GIBCO BRL) containing 20 ng/ml EGF (GIBCO BRL) was prepared, and 200 μl of this medium solution were added onto each well containing the type I collagen gel. Human umbilical vein endothelial cells (HUVEC) were suspended in a serum-free medium (human endothelial-SFM basal growth medium; GIBCO BRL) to prepare a cell suspension at a density of 5×10^5 cells/ml. 200 μl of this suspension were put into each well containing the type I collagen gel and serum-free medium, and cultured overnight.
(§5) After incubation, […] of 3.3 mg/ml MTT (SIGMA) were added into each well and reacted at 37° C. in a CO2 incubator for 3 hours to stain the cells. Under a microscope (SZX12 manufactured by OLYMPUS), an image of a tube formed by HUVEC was incorporated (M-3204C manufactured by OLYMPUS). The tube length in the incorporated image was measured by image analysis software Mac SCOPE 2.56 (manufactured by MITANI) to quantify the tube formation of HUVEC.
Test [3] deals with Colo320DM cells. As to the kind of experiment: Mouse model with grown cancer, Colo320DM. The class given is in vivo, mice (KSN Slc, female). Conditions: Colo320DM tumor; oral, 2 weeks; relative tumor volume treated/control. The method, then:
(§2) 1×10^7 KP-1 or Colo320DM cells/0.1 ml PBS/mouse were inoculated subcutaneously to mice (KSN Slc, female). From 1 to 2 weeks after the transplantation, 0.5% aqueous methyl cellulose solution, E7820 (0.5% methyl cellulose suspension: 50, 100, 200 mg/kg: twice a day), or ZD6474 (0.5% methyl cellulose suspension: 50, 100 mg/kg: once a day), or both of E7820 (50, 100, 200 mg/kg: twice a day) and ZD6474 (50, 100 mg/kg: once a day), were orally administered for 2 weeks. The transplanted tumor volume was measured twice every week, and the relative tumor volume was calculated according to the following equation: Relative tumor volume=tumor volume on the day after last administration/tumor volume at first administration.
(§3) The antitumor effect was expressed in T/C % (T/C %=relative tumor volume in the chemical administration group/relative tumor volume in the control group).

Test [4] has as its system KP-1 cells. The experiment in a line: Mouse model with grown cancer, KP-1. It is filed as in vivo, mice (KSN Slc, female). Particulars: KP-1 tumor; oral, 2 weeks; relative tumor volume treated/control. The protocol:
as §2, §3

In test [5] the test system is KP-1 or Colo320DM cells. As to the kind of experiment: Mouse model with grown cancer (FIG. 1, tumor not given). It is filed as in vivo, mice (KSN Slc, female). Particulars: oral, 2 weeks. The protocol:
as §2, §3

The test system of test [6] is Human umbilical vein endothelial cells. As to the kind of experiment: Proliferation of VEGF-induced endothelial cells, combination with E7820. Particulars: inhibition rate (fa) 0.5, 20 ng/ml VEGF; for Combination index (CI): formula of Chou et al. It is filed as cell-based. The method, then: On the next day, ½ serial dilutions of VEGF receptor kinase inhibitors (ZD6474, ZD4190, SU5416, SU6668) or VEGF antibody as VEGF inhibitors, ½ serial dilutions of VEGF antibody, ½ serial dilutions of E7820, and dilutions containing two of the above substances were prepared respectively, and each dilution was added in a volume of 100 μl/well to each well containing the cultured human umbilical vein endothelial cells, and the cells were further cultured.
as §1

For test [7], the system named is Human umbilical vein endothelial cells (HUVEC). As to the kind of experiment: Tube formation of endothelial cell, VEGF inhibitor wells, combination with E7820.
Procedure: as §4, §5

Turning to `COc1cc(OC)cc(-c2cc3cnc(N)nc3nc2NC(=O)NC(C)(C)C)c1` [PD166866], in test [1], the Combination effect entry is “Synergistic” and the “Combination index (CI)” value stood at 0.5. For the same compound, the Combination effect entry in test [2] was “Synergistic”.
As to `CCN(CC)CCCCNc1ncc2cc(-c3cc(OC)cc(OC)c3)c(NC(=O)NC(C)(C)C)nc2n1` [PD173074], in test [1], the Combination effect entry is on record as “Synergistic” and the “Combination index (CI)” value is recorded as 0.4.
On to `Cc1ccc(NS(=O)(=O)c2cccc(C#N)c2)c2[nH]cc(C#N)c12` [E7820], for which the T/C % stood at 60% in test [3] and 83% in test [4]. For the same compound, the “Tumor growth / antitumor effect (FIG. 1)” value in test [5] is “tumor growth was inhibited”.
In the case of `Cc1cc(C)c(/C=C2\C(=O)Nc3ccccc32)[nH]1` [SU5416], in test [6], the Combination effect result is “Synergistic” and the “Combination index (CI)” value is listed as 0.4.
As for `COc1cc2c(Nc3ccc(Br)cc3F)ncnc2cc1OCC1CCN(C)CC1` [ZD6474], the T/C % in test [3] amounted to 56%; in test [4], 47%. The Combination effect entry in test [6] was “Synergistic”; in test [7] (inhibition rate (fa) 0.5, 10 ng/ml EGF and 20 ng/ml VEGF) it was “Synergistic”. Besides, the “Combination index (CI)” value is recorded as 0.4 in test [6]; 0.4 in test [7] (inhibition rate (fa) 0.5, tube length, 10 ng/ml EGF and 20 ng/ml VEGF). Further, in test [5], the “Tumor growth / antitumor effect (FIG. 1)” value is on record as “tumor growth was inhibited”.
As for `Cc1[nH]c(/C=C2\C(=O)Nc3ccccc32)c(C)c1CCC(=O)O` [SU6668], in test [6], the Combination effect entry is given as “Synergistic” and the “Combination index (CI)” value was 0.5.
In the case of `COc1cc2c(Nc3ccc(Br)cc3F)ncnc2cc1OCCn1ccnn1` [ZD4190], in test [6], the Combination effect result is “Synergistic” and the “Combination index (CI)” value was 0.3.

The values are drawn from US20090269352A1, “ANTITUMOR AGENT COMPRISING SULFONAMIDE-CONTAINING HETEROCYCLIC COMPOUND COMBINED WITH AN ANGIOGENESIS INHIBITOR” (priority 2002, published 2009).
